One test deals with T1, human GIP receptor (Homo sapiens, UniProt P48546).
T1 construct: expressed in transfected cells; host or cells: BHK (parent line BHKTS13), clone BHK CRE luc2P hGIPR
T1 sequence (P48546 22-466): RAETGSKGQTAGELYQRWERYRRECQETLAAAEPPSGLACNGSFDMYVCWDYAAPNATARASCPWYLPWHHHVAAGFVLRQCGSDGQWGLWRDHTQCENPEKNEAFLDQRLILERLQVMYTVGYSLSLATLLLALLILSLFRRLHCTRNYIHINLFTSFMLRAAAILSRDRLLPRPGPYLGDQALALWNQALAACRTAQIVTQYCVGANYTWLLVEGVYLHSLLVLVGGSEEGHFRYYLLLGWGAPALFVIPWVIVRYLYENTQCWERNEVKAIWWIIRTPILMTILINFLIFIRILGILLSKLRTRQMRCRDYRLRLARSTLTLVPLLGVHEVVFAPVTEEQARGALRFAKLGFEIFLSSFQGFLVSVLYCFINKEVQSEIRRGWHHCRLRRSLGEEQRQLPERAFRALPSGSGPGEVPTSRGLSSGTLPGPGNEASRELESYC
The test is described as follows: In vitro functional potency, CRE luciferase reporter, whole BHK cells (hGIPR). Format: cell-based. Conditions: BHK CRE luc2P hGIPR cells. As for the experimental part:
(§1) The in vitro functional potency is the measure of target receptor activation in a whole cell assay.
(§2) In vitro functional potency was determined by measuring the response of the target receptor in a reporter gene assay in individual cell lines. […] When the respective receptor is activated, it results in the production of cAMP, which in turn results in expression of the luciferase protein. When assay incubation is completed, luciferase substrate (luciferin) is added resulting in the enzymatic conversion of luciferin to oxyluciferin and producing bioluminescence. The luminescence is measured as the readout for the assay.
(§3) The cells lines used in these assays were BHK cells with BHKTS13 as a parent cell line. The cell lines were derived from a clone containing the CRE luciferase element and were established by further transfection with the respective human receptor to obtain the relevant cell line: BHK CRE luc2P hGLP-1R or BHK CRE luc2P hGIPR. The cells were cultured at 37° C. with 5% CO2 in Cell Culture Medium. They were aliquoted and stored in liquid nitrogen. The cells were kept in continuous culture and were seeded out the day before each assay.
(§4) GLP-1R Cell Culture Medium consisted of DMEM medium with 10% FBS, 500 µg/mL G418, and 300 µg/mL hygromycin. GIPR Cell Culture Medium consisted of DMEM medium with 10% FBS, 400 µg/mL G418, and 300 µg/mL hygromycin. Assay Buffer consisted of DMEM w/o phenol red, 10 mM Hepes, 1× Glutamax. 1% ovalbumin, and 0.1% Pluronic F-68 with the addition of HSA at twice the final assay concentration.
(§5) 1) Cells were plated at 5000 cells/well and incubated overnight in the assay plate. 2) Cells were washed once in DPBS. 3) Stocks of the test compounds and reference compounds in concentrations ranging from […] were diluted 1:150 in Assay Buffer. Compounds were then diluted 1:10 in column 1 of a 96 deep well dilution plate and then carried across the row creating a 3.5 fold, 12 point dilution curve. 4) Assay Buffer (50 μl aliquot) with or without HSA was added to each well in the assay plate. 5) A 50 μl aliquot of compound or blank was transferred from the dilution plate to the assay plate containing the Assay Buffer with or without HSA. 6) The assay plate was incubated for 3 h in a 5% CO2 incubator at 37° C. 7) The cells were washed once with DPBS. 8) A 100 μl aliquot of DPBS was added to each well of the assay plate. 9) A 100 μl aliquot of steadylite plus reagent (light sensitive) was added to each well of the assay plate. 10) Each assay plate was covered with aluminum foil to protect it from light and shaken at 250 RPM for 30 min at room temperature. 11) Each assay plate was read in a microtiter plate reader.
(§6) The data from the microtiter plate reader was first regressed in an Excel in order to calculate the x-axis, log scale concentrations based on the individual test compound's stock concentration and the dilutions of the assay. […] The software performs a non-linear regression (log(agonist) vs response). A minimum of two replicates was measured for each sample. The reported values are averages of the replicates.

In a further test the target is human GLP-1 receptor (Homo sapiens, UniProt P43220). The test is described as follows: In vitro functional potency, CRE luciferase reporter, whole BHK cells (hGLP-1R). Conditions: BHK CRE luc2P hGLP-1R cells. Format: cell-based. More on the design: expressed in transfected cells; host or cells: BHK (parent line BHKTS13), clone BHK CRE luc2P hGLP-1R. As for the experimental part: as §1, §2, §3, §4, §5, §6
Chain of human GLP-1 receptor (P43220 24-463): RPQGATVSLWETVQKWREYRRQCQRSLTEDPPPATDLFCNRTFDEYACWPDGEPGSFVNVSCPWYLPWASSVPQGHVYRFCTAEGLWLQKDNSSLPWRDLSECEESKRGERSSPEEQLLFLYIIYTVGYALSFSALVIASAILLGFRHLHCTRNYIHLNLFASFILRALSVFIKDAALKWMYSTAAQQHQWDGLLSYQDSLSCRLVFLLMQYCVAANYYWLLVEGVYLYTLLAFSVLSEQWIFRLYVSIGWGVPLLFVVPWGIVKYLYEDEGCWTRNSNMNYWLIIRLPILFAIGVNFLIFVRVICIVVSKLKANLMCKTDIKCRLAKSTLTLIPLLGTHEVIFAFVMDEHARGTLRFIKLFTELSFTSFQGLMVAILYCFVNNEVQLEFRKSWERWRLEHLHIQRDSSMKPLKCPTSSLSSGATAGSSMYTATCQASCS

[1] abbreviates: 0% HSA, read-out: hGIPR, CRE Luc 0% HSA EC50.
Where [2] appears, read: hGIPR, CRE Luc 1% HSA EC50, 1% HSA.
Where [3] appears, read: 0% HSA, read-out: hGLP-1R, CRE Luc 0% HSA EC50.
Where [4] appears, read: hGLP-1R, CRE Luc 1% HSA EC50, 1% HSA.

pEC50: −log10 of the molar value. Like-named read-outs stand apart in the source and are kept apart here. Starred links: 1 amine or outer side, 2 acyl side, 3 side chain; linkers in the order of their positions; H or OH if unused. Non-standard residues stand in square brackets, D forms with d. Residues, ends and D or L forms follow the SMILES beside them. Groups on a side chain read outwards from the residue. *: point of attachment. C20 diacid = O=C(O)CCCCCCCCCCCCCCCCCCC(=O)*; C18 diacid = O=C(O)CCCCCCCCCCCCCCCCC(=O)*; γGlu = O=C(O)[C@H](CCC(=O)[*:2])N[*:1]; εLys = N[C@@H](CCCCN[*:1])C(=O)[*:2]; Aib = CC(C)(N)C(=O)O

In general, pEC50 refers to −log10 of the EC50, conventionally taken in molar units. With `CC[C@H](C)[C@H](NC(=O)[C@H](CO)NC(=O)[C@H](Cc1ccc(O)cc1)NC(=O)[C@H](CC(=O)O)NC(=O)[C@H](CO)NC(=O)[C@@H](NC(=O)[C@H](Cc1ccccc1)NC(=O)[C@@H](NC(=O)CNC(=O)[C@H](CCC(=O)O)NC(=O)C(C)(C)NC(=O)[C@@H](N)Cc1ccc(O)cc1)[C@@H](C)O)[C@@H](C)O)C(=O)N[C@@H](Cc1ccc(O)cc1)C(=O)N[C@@H](CC(C)C)C(=O)N[C@@H](CCC(=O)O)C(=O)N[C@@H](CCCCNC(=O)[C@@H](N)CCCCNC(=O)[C@@H](N)CCCCNC(=O)CC[C@H](NC(=O)CCCCCCCCCCCCCCCCCCC(=O)O)C(=O)O)C(=O)N[C@@H](CCC(N)=O)C(=O)N[C@@H](C)C(=O)N[C@@H](C)C(=O)N[C@@H](CCC(N)=O)C(=O)N[C@@H](CCC(=O)O)C(=O)N[C@@H](Cc1ccccc1)C(=O)N[C@H](C(=O)N[C@@H](CC(N)=O)C(=O)N[C@@H](Cc1c[nH]c2ccccc12)C(=O)N[C@@H](CC(C)C)C(=O)N[C@@H](CC(C)C)C(=O)N[C@@H](C)C(=O)NCC(=O)NCC(=O)N1CCC[C@H]1C(=O)N[C@@H](CO)C(=O)N[C@@H](CO)C(=O)NCC(=O)N[C@@H](C)C(=O)N1CCC[C@H]1C(=O)N1CCC[C@H]1C(=O)N1CCC[C@H]1C(=O)N[C@@H](CO)C(N)=O)C(C)C` [Compound 1] (H-Y[Aib]EGTFTSDYSIYLEK([εLys-εLys-γGlu-C20 diacid])QAAQEFVNWLLAGGPSSGAPPPS-NH2), the negative logarithm of the EC50 (pEC50) at human GIP receptor (setting [1]) was 11.55; on human GIP receptor (setting [2]), 9.76; on human GLP-1 receptor (setting [3]), 11.11; at human GLP-1 receptor (setting [4]) it was 8.78.

Turning to `CC(C)C[C@H](NC(=O)[C@H](CC(C)C)NC(=O)[C@H](Cc1c[nH]c2ccccc12)NC(=O)[C@H](CC(N)=O)NC(=O)[C@@H](NC(=O)[C@H](Cc1ccccc1)NC(=O)[C@H](CCC(=O)O)NC(=O)[C@H](CCC(N)=O)NC(=O)[C@H](C)NC(=O)[C@H](C)NC(=O)[C@H](CCC(N)=O)NC(=O)[C@H](CCCCNC(=O)[C@@H](N)CCCCNC(=O)[C@@H](N)CCCCNC(=O)CC[C@H](NC(=O)CCCCCCCCCCCCCCCCCCC(=O)O)C(=O)O)NC(=O)[C@H](CCC(=O)O)NC(=O)[C@H](CC(C)C)NC(=O)[C@H](Cc1ccc(O)cc1)NC(=O)[C@H](Cc1ccc(O)cc1)NC(=O)[C@H](CO)NC(=O)[C@H](Cc1ccc(O)cc1)NC(=O)[C@H](CC(=O)O)NC(=O)[C@H](CO)NC(=O)[C@@H](NC(=O)[C@H](Cc1ccccc1)NC(=O)[C@@H](NC(=O)CNC(=O)[C@H](CCC(=O)O)NC(=O)C(C)(C)NC(=O)[C@@H](N)Cc1ccc(O)cc1)[C@@H](C)O)[C@@H](C)O)C(C)C)C(=O)N[C@@H](C)C(=O)NCC(=O)NCC(=O)N1CCC[C@H]1C(=O)N[C@@H](CO)C(=O)N[C@@H](CO)C(=O)NCC(=O)N[C@@H](C)C(=O)N1CCC[C@H]1C(=O)N1CCC[C@H]1C(=O)N1CCC[C@H]1C(=O)N[C@@H](CO)C(N)=O` [Compound 2] (H-Y[Aib]EGTFTSDYSYYLEK([εLys-εLys-γGlu-C20 diacid])QAAQEFVNWLLAGGPSSGAPPPS-NH2), the pEC50 was 11.42 on human GIP receptor (setting [1]), 9.56 at human GIP receptor (setting [2]), 11.22 on human GLP-1 receptor (setting [3]) and 9.05 on human GLP-1 receptor (setting [4]).

In the case of `CC(C)C[C@H](NC(=O)[C@H](CC(C)C)NC(=O)[C@H](Cc1c[nH]c2ccccc12)NC(=O)[C@H](CC(N)=O)NC(=O)[C@@H](NC(=O)[C@H](Cc1ccccc1)NC(=O)[C@H](CCC(=O)O)NC(=O)[C@H](CCC(N)=O)NC(=O)[C@H](C)NC(=O)[C@H](C)NC(=O)[C@H](CCC(N)=O)NC(=O)[C@H](CCCCNC(=O)[C@@H](N)CCCCNC(=O)[C@@H](N)CCCCNC(=O)CC[C@H](NC(=O)CCCCCCCCCCCCCCCCC(=O)O)C(=O)O)NC(=O)[C@H](CCC(=O)O)NC(=O)[C@H](CC(C)C)NC(=O)[C@H](Cc1ccc(O)cc1)NC(=O)[C@H](Cc1ccc(O)cc1)NC(=O)[C@H](CO)NC(=O)[C@H](Cc1ccc(O)cc1)NC(=O)[C@H](CC(=O)O)NC(=O)[C@H](CO)NC(=O)[C@@H](NC(=O)[C@H](Cc1ccccc1)NC(=O)[C@@H](NC(=O)CNC(=O)[C@H](CCC(=O)O)NC(=O)C(C)(C)NC(=O)[C@@H](N)Cc1ccc(O)cc1)[C@@H](C)O)[C@@H](C)O)C(C)C)C(=O)N[C@@H](C)C(=O)NCC(=O)NCC(=O)N1CCC[C@H]1C(=O)N[C@@H](CO)C(=O)N[C@@H](CO)C(=O)NCC(=O)N[C@@H](C)C(=O)N1CCC[C@H]1C(=O)N1CCC[C@H]1C(=O)N1CCC[C@H]1C(=O)N[C@@H](CO)C(N)=O` [Compound 3] (H-Y[Aib]EGTFTSDYSYYLEK([εLys-εLys-γGlu-C18 diacid])QAAQEFVNWLLAGGPSSGAPPPS-NH2), the pEC50 was 11.16 at human GIP receptor (setting [1]), 9.64 at human GIP receptor (setting [2]), 11.07 at human GLP-1 receptor (setting [3]) and 9.20 on human GLP-1 receptor (setting [4]).

For `CC[C@H](C)[C@H](NC(=O)[C@H](Cc1ccccc1)NC(=O)[C@H](CCC(=O)O)NC(=O)[C@H](CCCNC(=N)N)NC(=O)[C@H](C)NC(=O)[C@H](C)NC(=O)[C@H](CCC(N)=O)NC(=O)[C@H](CCCCNC(=O)[C@@H](N)CCCCNC(=O)[C@@H](N)CCCCNC(=O)CC[C@H](NC(=O)CCCCCCCCCCCCCCCCC(=O)O)C(=O)O)NC(=O)[C@H](CCC(=O)O)NC(=O)[C@H](CC(C)C)NC(=O)[C@H](Cc1ccc(O)cc1)NC(=O)[C@@H](NC(=O)[C@H](CO)NC(=O)[C@H](Cc1ccc(O)cc1)NC(=O)[C@H](CC(=O)O)NC(=O)[C@H](CO)NC(=O)[C@@H](NC(=O)[C@H](Cc1ccccc1)NC(=O)[C@@H](NC(=O)CNC(=O)[C@H](CCC(=O)O)NC(=O)[C@H](C)NC(=O)[C@@H](N)Cc1ccc(O)cc1)[C@@H](C)O)[C@@H](C)O)[C@@H](C)CC)C(=O)N[C@@H](CC(N)=O)C(=O)N[C@@H](Cc1c[nH]c2ccccc12)C(=O)N[C@@H](CC(C)C)C(=O)N[C@@H](CC(C)C)C(=O)N[C@@H](C)C(=O)NCC(=O)NCC(=O)N1CCC[C@H]1C(=O)N[C@@H](CO)C(=O)N[C@@H](CO)C(=O)NCC(=O)N[C@@H](C)C(=O)N1CCC[C@H]1C(=O)N1CCC[C@H]1C(=O)N1CCC[C@H]1C(=O)N[C@@H](CO)C(=O)O` [Compound 17] (H-YAEGTFTSDYSIYLEK([εLys-εLys-γGlu-C18 diacid])QAAREFINWLLAGGPSSGAPPPS-OH), the negative-log EC50 (pEC50) at human GIP receptor (setting [1]) is 10.46; at human GIP receptor (setting [2]) it was 8.88; at human GLP-1 receptor (setting [3]), 11.28; on human GLP-1 receptor (setting [4]), 9.59.

The record behind these values is patent publication US20220177538A1, “CO-AGONISTS AT GLP-1 AND GIP RECEPTORS SUITABLE FOR ORAL DELIVERY” (Novo Nordisk A/S, priority 2020, published 2022).
